Measured values: ChEMBL document CHEMBL1125924, “Thienotriazolodiazepines as platelet-activating factor antagonists. Steric limitations for the substituent in position 2” (J Med Chem, 1991)
Activity calls are given as the source filed them. The calls are words filed in the database; no cut-off is given here.

Key:
Cavia porcellus [1] = assay: In vivo inhibitory dose against PAF-induced bronchoconstriction in guinea pig upon intravenous administration after one-minute pretreatment time; IA=Inactive; format: functional, organism-based
Cavia porcellus [2] = assay: In vivo inhibitory dose against PAF-induced bronchoconstriction in guinea pig upon intravenous administration after one-minute pre-treatment time.; format: functional; settings: read-out: ID50 (the source's name)
Cavia porcellus [3] = assay: In vivo inhibition against PAF-induced bronchoconstriction in guinea pig at 1 mg/kg dose upon peroral administration after […] pre-treatment time.; format: functional; settings: route oral
Cavia porcellus [4] = assay: In vivo inhibitory dose against PAF-induced bronchoconstriction in guinea pig upon peroral administration after […] pretreatment time; format: functional; settings: po, read-out: ID50 (the source's name)
[5] = In vitro for platelet activating factor receptor antagonist activity in a binding assay using washed whole dog platelets.

Row | SMILES | ID50 (Cavia porcellus [1]) | ED50 (Cavia porcellus [2]) [mg/kg] | inhibition in vivo at 1 mg/kg (Cavia porcellus [3]) [%] | ED50 (Cavia porcellus [4]) [mg/kg] | IC50 [5] [nM]
1 | Cc1nnc2n1-c1sc(-c3cc(O)[nH]n3)cc1C(c1ccccc1Cl)=NC2 | inactive |  |  |  | 
2 | Cc1nnc2n1-c1sc(C#Cc3ccc(CC(C)C)cc3)cc1C(c1ccccc1Cl)=NC2 |  | 0.3 | 2 |  | 
3 | Cc1nnc2n1-c1sc(/C=C\c3ccccn3)cc1C(c1ccccc1Cl)=NC2 |  | 0.05 | 20 |  | 
4 | CCCCc1ccc(/C=C\c2cc3c(s2)-n2c(C)nnc2CN=C3c2ccccc2Cl)cc1 |  | 0.0004 | 93 | 0.35 | 
5 | Cc1nnc2n1-c1sc(/C(CC(=O)N3CCOCC3)=N\N)cc1C(c1ccccc1Cl)=NC2 |  | 0.5 | 12 |  | 
6 | Cc1nnc2n1-c1sc(C#Cc3ccc4c(c3)CCC4)cc1C(c1ccccc1Cl)=NC2 |  | 0.2 | 20 |  | 
7 | Cc1nnc2n1-c1sc(CCc3ccc(C4CCCCC4)cc3)cc1C(c1ccccc1Cl)=NC2 |  | 0.005 | 68 | 0.4 | 
8 | Cc1nnc2n1-c1sc(/C=C\C(=O)N3CCOCC3)cc1C(c1ccccc1Cl)=NC2 |  | 0.06 | 20 |  | 
9 | Cc1nnc2n1-c1sc(CCc3ccc(CC(C)C)cc3)cc1C(c1ccccc1Cl)=NC2 |  | 0.002 | 99 | 0.03 | 
10 | Cc1nnc2n1-c1sc(I)cc1C(c1ccccc1Cl)=NC2 |  | 0.2 | 4 |  | 370
11 | Cc1cc(CCc2cc3c(s2)-n2c(C)nnc2CN=C3c2ccccc2Cl)cc2c1OC(C)(C)C2 |  | 0.01 | 96 | 0.3 | 
12 | Cc1nnc2n1-c1sc(/C=C\c3ccc4c(c3)CCC4)cc1C(c1ccccc1Cl)=NC2 |  | 0.03 | 58 | 0.7 | 
13 | Cc1nnc2n1-c1sc(-c3[nH]nnc3C(=O)N3CCOCC3)cc1C(c1ccccc1Cl)=NC2 | inactive |  |  |  | 
14 | CCCCc1ccc(CCc2cc3c(s2)-n2c(C)nnc2CN=C3c2ccccc2Cl)cc1 |  | 0.003 | 98 | 0.2 | 
15 | Cc1nnc2n1-c1sc(/C=C\c3ccc(CC(C)C)cc3)cc1C(c1ccccc1Cl)=NC2 |  | 0.004 | 99 | 0.03 | 
16 | Cc1nnc2n1-c1sc(/C=C/C(=O)N3CCOCC3)cc1C(c1ccccc1Cl)=NC2 |  | 0.4 | 27 |  | 
17 | Cc1nnc2n1-c1sc(C#Cc3cccc4ccccc34)cc1C(c1ccccc1Cl)=NC2 |  | 0.03 | 14 |  | 
18 | Cc1nnc2n1-c1sc(C#Cc3ccc(-c4ccccn4)s3)cc1C(c1ccccc1Cl)=NC2 |  | 0.003 | 93 | 0.08 | 

Row | SMILES | ID50 (Cavia porcellus [1]) | ED50 (Cavia porcellus [2]) [mg/kg] | inhibition in vivo at 1 mg/kg (Cavia porcellus [3]) [%] | ED50 (Cavia porcellus [4]) [mg/kg] | IC50 [5] [nM]
19 | C#Cc1cc2c(s1)-n1c(C)nnc1CN=C2c1ccccc1Cl |  | 0.02 | 9 |  | 
20 | Cc1nnc2n1-c1sc(CCc3ccc4c(c3)CCO4)cc1C(c1ccccc1Cl)=NC2 |  | 0.003 | 44 |  | 
21 | Cc1nnc2n1-c1sc(Br)cc1C(c1ccccc1Cl)=NC2 [BROTIZOLAM] |  | 0.5 | 11 |  | 
22 | Cc1nnc2n1-c1sc(CCc3ccc4c(c3)CCC4)cc1C(c1ccccc1Cl)=NC2 |  | 0.04 | 99 | 0.03 | 
23 | Cc1nnc2n1-c1sc(CCc3ccc(-c4ccccn4)s3)cc1C(c1ccccc1Cl)=NC2 |  | 0.003 | 89 | 0.4 | 
24 | Cc1nnc2n1-c1sc(C#CC(=O)N3CCOCC3)cc1C(c1ccccc1Cl)=NC2 |  | 0.5 | 16 |  | 
25 | Cc1cc(C#Cc2cc3c(s2)-n2c(C)nnc2CN=C3c2ccccc2Cl)cc2c1OC(C)(C)C2 | inactive |  |  |  | 
26 | Cc1nnc2n1-c1sc(C#C[Si](C)(C)C)cc1C(c1ccccc1Cl)=NC2 |  | 0.3 | 28 |  | 
27 | Cc1nnc2n1-c1sc(C#Cc3ccc(C4CCCCC4)cc3)cc1C(c1ccccc1Cl)=NC2 |  | 0.3 | 22 |  | 
28 | Cc1nnc2n1-c1sc(CCC(=O)N3CCOCC3)cc1C(c1ccccc1Cl)=NC2 [APAFANT] |  | 0.03 | 42 | 1.2 | 
29 | Cc1nnc2n1-c1sc(C#CCO)cc1C(c1ccccc1Cl)=NC2 |  | 0.02 | 20 |  | 
30 | Cc1nnc2n1-c1sc(CCc3ccc(-n4ccnc4)cc3)cc1C(c1ccccc1Cl)=NC2 |  | 0.003 | 95 | 0.4 | 
31 | CCCCc1ccc(C#Cc2cc3c(s2)-n2c(C)nnc2CN=C3c2ccccc2Cl)cc1 |  | 0.2 | 6 |  | 
32 | Cc1nnc2n1-c1sc(C#Cc3ccccc3)cc1C(c1ccccc1Cl)=NC2 |  | 3 | 6 |  | 
33 | Cc1nnc2n1-c1sc(C#Cc3ccccn3)cc1C(c1ccccc1Cl)=NC2 |  | 0.06 | 5 |  | 
34 | Cc1nnc2n1-c1sc(/C=C\c3ccc(C4CCCCC4)cc3)cc1C(c1ccccc1Cl)=NC2 |  | 0.03 | 85 | 0.4 | 
35 | Cc1nnc2n1-c1sc(C#Cc3ccc4c(c3)CCO4)cc1C(c1ccccc1Cl)=NC2 |  | 0.2 | 7 |  | 
